One may read the IC50 as the concentration at which inhibition is half-maximal.

For one assay, the target named is T1, GST-JAK2(808-1132) (Homo sapiens, UniProt O60674).
T1 construct: GST-JAK2(808-1132); purchased Invitrogen (Carlsbad, USA) #4288
In words: JAK2 kinase assay (Caliper mobility shift, LabChip 3000). The format is biochemical. The procedure, abridged: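 Recombinant GST-JAK2(808-1132) kinase domain with FITC-labelled JAK3tide peptide substrate and ATP; 60 min at 30 °C, EDTA stop. Substrate/product ratio read by microfluidic mobility shift; compounds at 8 final concentrations, 10 to 0.003 μM.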

In assay [1] the test system is JAK1/JAK2-dependent nuclear translocation of STAT1-GFP in HT1080 fibrosarcoma cells. Put plainly: STAT1 nuclear translocation assay (Cellomics), IFN-γ stimulated HT1080 STAT1-GFP cells. The format is cell-based. Particulars: Homo sapiens, HT-1080, STAT1 translocation pathway. The procedure, abridged:
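HT1080 cells stably expressing STAT1-GFP, pre-treated 30 min with compound (10 μM–0.003 μM, 0.1% DMSO), then stimulated 2 h with 100 ng/ml IFN-γ, fixed and Hoechst-stained. Nuclear-cytoplasmic GFP differential imaged over ≥1000 cells/well, normalised to unstimulated and DMSO-stimulated wells for IC50.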

T1 sequence (O60674 808-1132): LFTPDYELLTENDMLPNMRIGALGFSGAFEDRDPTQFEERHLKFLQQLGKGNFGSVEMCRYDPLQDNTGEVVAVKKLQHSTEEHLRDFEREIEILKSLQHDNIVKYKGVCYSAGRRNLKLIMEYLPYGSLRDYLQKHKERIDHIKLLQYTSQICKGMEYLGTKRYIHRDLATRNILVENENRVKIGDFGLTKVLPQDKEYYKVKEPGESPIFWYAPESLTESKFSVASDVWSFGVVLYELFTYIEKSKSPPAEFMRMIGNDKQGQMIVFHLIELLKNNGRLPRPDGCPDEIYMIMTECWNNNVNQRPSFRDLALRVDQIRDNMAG

As to `O=S1(=O)CCN(Cc2c(F)cc(-n3ccc4cnc(Nc5ccccn5)nc43)cc2F)CC1` [Example 181, {7-[4-(1,1-Dioxido-thiomorpholin-4-ylmethyl)-3,5-difluoro-phenyl]-7H-pyrrolo[2,3-d]pyrimidin-2-yl}-pyridin-2-yl-amine], the half-inhibitory concentration (IC50) at GST-JAK2(808-1132) was 15.5 nM; in assay [1] it was 16600 nM.

For `O=S1(=O)CCN(Cc2c(F)cc(-n3ccc4cnc(Nc5cccnc5)nc43)cc2F)CC1` [Example 182, {7-[4-(1,1-Dioxido-thiomorpholin-4-ylmethyl)-3,5-difluoro-phenyl]-7H-pyrrolo[2,3-d]pyrimidin-2-yl}-pyridin-3-yl-amine], the IC50 is under 3 nM at GST-JAK2(808-1132) and 125 nM in assay [1].

For the compound `O=S1(=O)CCN(Cc2c(F)cc(-n3ccc4cnc(Nc5ccncc5)nc43)cc2F)CC1` [Example 183, {7-[4-(1,1-Dioxido-thiomorpholin-4-ylmethyl)-3,5-difluoro-phenyl]-7H-pyrrolo[2,3-d]pyrimidin-2-yl}-pyridin-4-yl-amine], the IC50 on GST-JAK2(808-1132) stood at 3.3 nM; in assay [1], 95 nM.

For `N#Cc1ccc(Nc2ncc3ccn(-c4cc(F)c(CN5CCS(=O)(=O)CC5)c(F)c4)c3n2)cc1` [Example 185, 4-{7-[4-(1,1-Dioxido-thiomorpholin-4-ylmethyl)-3,5-difluoro-phenyl]-7H-pyrrolo[2,3-d]pyrimidin-2-ylamino}-benzonitrile], the IC50 is under 3 nM on GST-JAK2(808-1132) and 290 nM in assay [1].

Turning to `CN1CCN(C(=O)c2ccc(Nc3ncc4ccn(-c5cc(F)c(CN6CCS(=O)(=O)CC6)c(F)c5)c4n3)cc2C(F)(F)F)CC1` [Example 186, (4-{7-[4-(1,1-Dioxido-thiomorpholin-4-ylmethyl)-3,5-difluoro-phenyl]-7H-pyrrolo[2,3-d]pyrimidin-2-ylamino}-2-trifluoromethyl-phenyl)-(4-methyl-piperazin-1-yl)-methanone], the IC50 on GST-JAK2(808-1132) is under 3 nM; in assay [1], 95 nM.

As to `O=C(c1ccc(Nc2ncc3ccn(-c4cc(F)c(CN5CCS(=O)(=O)CC5)c(F)c4)c3n2)cc1)N1CCOCC1` [Example 187, (4-{7-[4-(1,1-Dioxido-thiomorpholin-4-ylmethyl)-3,5-difluoro-phenyl]-7H-pyrrolo[2,3-d]pyrimidin-2-ylamino}-phenyl)-morpholin-4-yl-methanone], the IC50 on GST-JAK2(808-1132) was under 3 nM; in assay [1], 55 nM.

For the compound `CCN1CCN(Cc2ccc(Nc3ncc4ccn(-c5cc(F)c(CN6CCS(=O)(=O)CC6)c(F)c5)c4n3)cc2)CC1` [Example 188, {7-[4-(1,1-Dioxido-thiomorpholin-4-ylmethyl)-3,5-difluoro-phenyl]-7H-pyrrolo[2,3-d]pyrimidin-2-yl}-[4-(4-ethyl-piperazin-1-ylmethyl)-phenyl]-amine], the IC50 on GST-JAK2(808-1132) was under 3 nM; in assay [1] it was 60 nM.

For the compound `COCc1ccc(Nc2ncc3ccn(-c4cc(F)c(C(=O)N5CCN(C)CC5)c(F)c4)c3n2)cc1` [Example 189, {2,6-Difluoro-4-[2-(4-methoxymethyl-phenylamino)-pyrrolo[2,3-d]pyrimidin-7-yl]-phenyl}-(4-methyl-piperazin-1-yl)-methanone], the IC50 on GST-JAK2(808-1132) came out at 9.5 nM; in assay [1], 846 nM.

As for `CN1CCN(C(=O)c2c(F)cc(-n3ccc4cnc(Nc5ccc(CN6CCS(=O)(=O)CC6)cc5)nc43)cc2F)CC1` [Example 190, (4-{2-[4-(1,1-Dioxido-thiomorpholin-4-ylmethyl)-phenylamino]-pyrrolo[2,3-d]pyrimidin-7-yl}-2,6-difluoro-phenyl)-(4-methyl-piperazin-1-yl)-methanone], the concentration for half-maximal inhibition (IC50) on GST-JAK2(808-1132) worked out at 5.2 nM; in assay [1], 439 nM.

Turning to `CCN1CCN(Cc2ccc(Nc3ncc4ccn(-c5cc(F)c(C(=O)N6CCN(C)CC6)c(F)c5)c4n3)cc2)CC1` [Example 191, (4-{2-[4-(4-Ethyl-piperazin-1-ylmethyl)-phenylamino]-pyrrolo[2,3-d]pyrimidin-7-yl}-2,6-difluoro-phenyl)-(4-methyl-piperazin-1-yl)-methanone], the IC50 on GST-JAK2(808-1132) stood at 28.5 nM; in assay [1], 3920 nM.

In the case of `CN1CCN(C(=O)c2c(F)cc(-n3ccc4cnc(Nc5ccc(CN6CCOCC6)cc5)nc43)cc2F)CC1` [Example 192, {2,6-Difluoro-4-[2-(4-morpholin-4-ylmethyl-phenylamino)-pyrrolo[2,3-d]pyrimidin-7-yl]-phenyl}-(4-methyl-piperazin-1-yl)-methanone], the values for the IC50 (at GST-JAK2(808-1132); in assay [1]) were 11.5 nM and 1490 nM, respectively.

On to `CC(C)Oc1ccc(Nc2ncc3ccn(-c4cc(F)c(CN5CCS(=O)(=O)CC5)c(F)c4)c3n2)cc1` [Example 194, {7-[4-(1,1-Dioxido-thiomorpholin-4-ylmethyl)-3,5-difluoro-phenyl]-7H-pyrrolo[2,3-d]pyrimidin-2-yl}-(4-isopropoxy-phenyl)-amine], for which the half-inhibitory concentration (IC50) at GST-JAK2(808-1132) was under 3 nM; in assay [1], 202 nM.

For the compound `O=C(c1ccc(Nc2ncc3ccn(-c4cc(F)c(CN5CCOCC5)c(F)c4)c3n2)cn1)N1CCOCC1` [Example 195, {5-[7-(3,5-Difluoro-4-morpholin-4-ylmethyl-phenyl)-7H-pyrrolo[2,3-d]pyrimidin-2-ylamino]-pyridin-2-yl}-morpholin-4-yl-methanone], the IC50 on GST-JAK2(808-1132) was 5.3 nM; in assay [1], 352 nM.

Turning to `CCN1CCN(Cc2ccc(Nc3ncc4ccn(-c5cc(F)c(CN6CCOCC6)c(F)c5)c4n3)cc2)CC1` [Example 196, [7-(3,5-Difluoro-4-morpholin-4-ylmethyl-phenyl)-7H-pyrrolo[2,3-d]pyrimidin-2-yl]-[4-(4-ethyl-piperazin-1-ylmethyl)-phenyl]-amine], the values for the IC50 (at GST-JAK2(808-1132); in assay [1]) were under 3 nM and 176 nM, respectively.

For the compound `Fc1cc(-n2ccc3cnc(Nc4ccc(CN5CCOCC5)cc4)nc32)cc(F)c1CN1CCOCC1` [Example 197, [7-(3,5-Difluoro-4-morpholin-4-ylmethyl-phenyl)-7H-pyrrolo[2,3-d]pyrimidin-2-yl]-(4-morpholin-4-ylmethyl-phenyl)-amine], the IC50 on GST-JAK2(808-1132) is under 3 nM; in assay [1], 90 nM.

Take `CN1CCN(Cc2cccc(Nc3ncc4ccn(-c5cc(F)c(CN6CCOCC6)c(F)c5)c4n3)c2)CC1` [Example 199, [7-(3,5-Difluoro-4-morpholin-4-ylmethyl-phenyl)-7H-pyrrolo[2,3-d]pyrimidin-2-yl]-[3-(4-methyl-piperazin-1-ylmethyl)-phenyl]-amine]: the IC50 at GST-JAK2(808-1132) is under 3 nM; in assay [1] it was 222 nM.

`CN1CCN(C(=O)c2ccc(Nc3ncc4ccn(-c5cc(F)c(CN6CCOCC6)c(F)c5)c4n3)cc2C(F)(F)F)CC1` [Example 201, {4-[7-(3. 5-Difluoro-4-morpholin-4-ylmethyl-phenyl)-7H-pyrrolo[2,3-d]pyrimidin-2-ylamino]-2-trifluoromethyl-phenyl}-(4-methyl-piperazin-1-yl)-methanone]: the values for the IC50 (at GST-JAK2(808-1132); in assay [1]) were under 3 nM and 199 nM, respectively.

Take `O=C(c1cccc(Nc2ncc3ccn(-c4cc(F)c(CN5CCOCC5)c(F)c4)c3n2)c1)N1CCOCC1` [Example 202, {3-[7-(3 5-Difluoro-4-morpholin-4-ylmethyl-phenyl)-7H-pyrrolo[2,3-d]pyrimidin-2-ylamino]-phenyl}-morpholin-4-yl-methanone]: the IC50 turned out to be 4.5 nM on GST-JAK2(808-1132) and 198 nM in assay [1].

`Fc1cc(-n2ccc3cnc(Nc4ccccc4)nc32)cc(F)c1CN1CCOCC1` [Example 208, [7-(3,5-Difluoro-4-morpholin-4-ylmethyl-phenyl)-7H-pyrrolo[2,3-d]pyrimidin-2-yl]-phenyl-amine]: the concentration for half-maximal inhibition (IC50) at GST-JAK2(808-1132) was 4.8 nM; in assay [1] it was 442 nM.

In the case of `Cc1ccc(Nc2ncc3ccn(-c4ccc(CC(=O)N5CCN(CCO)CC5)cc4)c3n2)cc1C` [Example 212, 2-{4-[2-(3,4-Dimethyl-phenylamino)-pyrrolo[2,3-d]pyrimidin-7-yl]-phenyl}-1-[4-(2-hydroxy-ethyl)-piperazin-1-yl]-ethanone], the values for the IC50 (on GST-JAK2(808-1132); in assay [1]) were under 3 nM and 106 nM, respectively.

With `Cc1cc(Nc2ncc3ccn(-c4cc(F)c(C(=O)N5CCOCC5)c(F)c4)c3n2)ccc1F` [Example 213, {2,6-Difluoro-4-[2-(4-fluoro-3-methyl-phenylamino)-pyrrolo[2,3-d]pyrimidin-7-yl]-phenyl}-morpholin-4-yl-methanone], the IC50 was found to be 5.9 nM on GST-JAK2(808-1132) and 728 nM in assay [1].

Take `O=C(c1c(F)cc(-n2ccc3cnc(Nc4ccccc4)nc32)cc1F)N1CCOCC1` [Example 214, [2,6-Difluoro-4-(2-phenylamino-pyrrolo[2,3-d]pyrimidin-7-yl)-phenyl]-morpholin-4-yl-methanone]: the figures for the 50% inhibitory concentration (IC50) (at GST-JAK2(808-1132); in assay [1]) were 5.1 nM and 643 nM, respectively.

`O=C(c1c(F)cc(-n2ccc3cnc(Nc4ccccn4)nc32)cc1F)N1CCOCC1` [Example 215, {2,6-Difluoro-4-[2-(pyridin-2-ylamino)-pyrrolo[2,3-d]pyrimidin-7-yl]-phenyl}-morpholin-4-yl-methanone]: the results for the IC50 (on GST-JAK2(808-1132); in assay [1]) were 420 nM and 10000 nM, respectively.

As to `O=C(c1c(F)cc(-n2ccc3cnc(Nc4cccnc4)nc32)cc1F)N1CCOCC1` [Example 216, {2,6-Difluoro-4-[2-(pyridin-3-ylamino)-pyrrolo[2,3-d]pyrimidin-7-yl]-phenyl}-morpholin-4-yl-methanone], the values for the IC50 (at GST-JAK2(808-1132); in assay [1]) were 3.3 nM and 579 nM, respectively.

`O=C(c1c(F)cc(-n2ccc3cnc(Nc4ccncc4)nc32)cc1F)N1CCOCC1` [Example 217, {2,6-Difluoro-4-[2-(pyridin-4-ylamino)-pyrrolo[2,3-d]pyrimidin-7-yl]-phenyl}-morpholin-4-yl-methanone]: the concentration for half-maximal inhibition (IC50) is 7.3 nM on GST-JAK2(808-1132) and 993 nM in assay [1].

The record behind these values is patent publication US8420657B2 (Novartis AG, priority 2008, dated 2013).
